Reference: ChEMBL document CHEMBL4813953, “Kinetics-Driven Drug Design Strategy for Next-Generation Acetylcholinesterase Inhibitors to Clinical Candidate” (J Med Chem, 2021)

Tests used:
Rattus norvegicus = species on record: Rattus norvegicus; assay: Selectivity index, ratio of IC50 for rat serum BuChE using S-butyrylthiocholine iodide as substrate to IC50 for rat cortex homogenate acetylcholinesterase using acetylthiocholine iodide as substrate
[1] = Tmax in Sprague-Dawley rat at 0.5 mg/kg, po; assay type: ADME, organism-based; conditions: in vivo
[2] = Tmax in human plasma at 12 mg, po; assay type: ADME, cell-free
[3] = Tmax in Sprague-Dawley rat brain at 10 mg/kg, po; assay type: ADME, organism-based
[4] = Cmax in Sprague-Dawley rat brain at 10 mg/kg, po; assay type: ADME, organism-based; design: route oral, dose 10 mg/kg
[5] = MRT in Sprague-Dawley rat brain at 10 mg/kg, po; assay type: ADME, organism-based
[6] = Protein binding in dog plasma; assay type: ADME, cell-free, Canis lupus familiaris; conditions: read-out: PPB (converted)
[7] = Protein binding in rat plasma; assay type: ADME, cell-free; conditions: read-out: PPB (converted)
[8] = Toxicity in Beagle dog assessed as effect on body temperature at 0.1 to 1 mg/kg; assay type: organism-based, Canis lupus familiaris; conditions: in vivo, dose 0.1-1 mg/kg
[9] = Toxicity in Beagle dog assessed as effect on respiration at 0.1 to 1 mg/kg; assay type: organism-based, Canis lupus familiaris; conditions: in vivo, dose 0.1-1 mg/kg
[10] = Toxicity in Beagle dog assessed as animal death at 1 to 20 mg/kg, po; assay type: organism-based, Canis lupus familiaris; conditions: in vivo, dose 1-20 mg/kg

COc1cc2c(cc1OC)C(=O)C(CC1(F)CCN(Cc3ccccc3F)CC1)C2 (stereo unspecified)
Ratio IC50 (Rattus norvegicus): 36900
Tmax [1]: 0.63 h
Tmax [2]: 1.5 h
Tmax [3]: 0.5 h
Cmax [4]: 831 ng/mL
MRT [5]: 8.9 h
fraction unbound [6]: 0.035
fraction unbound [7]: 0.031
Activity [8]: Non-Toxic
Activity [9]: Non-Toxic
Activity [10]: Non-Toxic
